Measurements published in publication PMC9016773 (Journal of chemical information and modeling, 2022).
“Also recorded” adds a separate entry of the source.

Key:
[1] = test system: actin filaments underlying the plasma membrane (cortex actin); details: inhibits HSPG-mediated endocytosis; cited from earlier work
[2] = test system: cortex actin filaments in U2OS cells; assay type: cell-based
[3] = test system: SARS-CoV-2 pseudotyped particles; assay type: cell-based; details: read-out: IC50, anti-pseudotyped particle activity
[4] = test system: HSPG-mediated endocytosis of α-Synuclein fibrils in HEK293T cells; assay: α-Synuclein fibrils uptake assay; assay type: cell-based; details: among the top 10 inhibitors
[5] = test system: SARS-CoV-2; details: among drugs of the repurposing screen; cited from earlier work

## O=C1/C(=C/c2ccccc2)C[C@@]2(O)[C@H]3Cc4ccc(O)c5c4[C@@]2(CCN3CC2CC2)[C@H]1O5 [BNTX]
[1]
  Disruption of actin filaments underlying the plasma membrane (cortex actin): effectively disrupt the actin filaments

## CC(C)S(=O)(=O)c1oc(-c2ccc(F)cc2)nc1S(=O)(=O)c1ccccc1 [NCGC00115755-02]
[2]
  Effect on actin filaments (phalloidin-Alexa488 staining): dose-dependent disruption of cortex actin filaments; also recorded: causes the disassembly of actin stress fiber and generates large actin aggregates
[3]
  IC50: 5 µM

## O=C(Oc1cccc2cccnc12)c1ccccc1 [NCGC00159478]
[4]
  Inhibition of the entry of pHrodo-labeled α-Synuclein fibrils (ranking in words): highest inhibition

## CN(C)CCNC(=O)c1nc(-c2ccc(N3CCN(C)CC3)cc2)cc2c1ccn2C [NCGC00411718]
[4]
  Inhibition of the entry of pHrodo-labeled α-Synuclein fibrils (ranking in words): highest inhibition

## CCN(CC)CCNC(=O)c1c(C)[nH]c(/C=C2\C(=O)Nc3ccc(F)cc32)c1C [Sunitinib]
[1]
  Disruption of actin filaments underlying the plasma membrane (cortex actin): effectively disrupt the actin filaments

## O=C1c2c(O)ccc(O)c2C(=O)c2c(NCCNCCO)ccc(NCCNCCO)c21 [mitoxantrone]
[5]
  Antiviral activity in vitro (in words): most potent antiviral activity in vitro
